Test results taken from ChEMBL document CHEMBL1146384, “Synthesis and in vitro binding studies of substituted piperidine naphthamides. Part II: Influence of the substitution on the benzyl moiety on the affinity for D2L, D4.2, and 5-HT2A receptors” (Bioorg Med Chem Lett, 2007).
Calls of active or inactive are those of the source. The rule behind the calls is not given here.

Key:
D(4) dopamine receptor = biological target: T1, D(4) dopamine receptor (Homo sapiens, UniProt P21917); experiment: Displacement of [3H]nemonapride from human cloned dopamine D4.2 receptor
T1 sequence (P21917 whole entry): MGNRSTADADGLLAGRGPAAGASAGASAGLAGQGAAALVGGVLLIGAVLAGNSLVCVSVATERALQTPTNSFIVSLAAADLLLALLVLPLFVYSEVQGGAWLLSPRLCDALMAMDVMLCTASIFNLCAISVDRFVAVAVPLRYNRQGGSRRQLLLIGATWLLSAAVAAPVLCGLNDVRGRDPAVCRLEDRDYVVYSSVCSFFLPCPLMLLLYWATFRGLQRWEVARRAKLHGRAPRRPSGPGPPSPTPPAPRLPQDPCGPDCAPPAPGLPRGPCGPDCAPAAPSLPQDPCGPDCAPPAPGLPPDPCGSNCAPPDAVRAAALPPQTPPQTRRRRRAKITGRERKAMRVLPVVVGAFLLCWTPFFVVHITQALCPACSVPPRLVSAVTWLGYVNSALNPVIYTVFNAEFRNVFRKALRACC

[1] = biological target: D(2) dopamine receptor (Homo sapiens) (UniProt P14416); experiment: Displacement of [3H]spiperone from human cloned dopamine D2L receptor at 1 uM
Chain of D(2) dopamine receptor (Homo sapiens) (P14416 whole entry): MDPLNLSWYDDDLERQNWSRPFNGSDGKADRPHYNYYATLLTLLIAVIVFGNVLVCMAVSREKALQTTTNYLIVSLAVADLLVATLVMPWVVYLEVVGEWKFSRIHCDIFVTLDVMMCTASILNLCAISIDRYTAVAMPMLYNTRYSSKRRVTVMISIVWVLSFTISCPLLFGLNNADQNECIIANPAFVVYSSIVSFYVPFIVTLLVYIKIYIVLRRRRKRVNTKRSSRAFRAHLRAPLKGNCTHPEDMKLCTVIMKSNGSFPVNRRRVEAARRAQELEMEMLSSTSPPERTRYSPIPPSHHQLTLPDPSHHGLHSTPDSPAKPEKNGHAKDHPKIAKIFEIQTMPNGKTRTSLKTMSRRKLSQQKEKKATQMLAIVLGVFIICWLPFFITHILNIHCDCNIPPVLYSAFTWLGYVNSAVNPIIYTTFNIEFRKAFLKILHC

[2] = biological target: 5-hydroxytryptamine receptor 2A (Rattus norvegicus) (UniProt P14842); experiment: Displacement of [3H]ketanserin from rat 5HT2A receptor at 1 uM
Chain of 5-hydroxytryptamine receptor 2A (Rattus norvegicus) (P14842 whole entry): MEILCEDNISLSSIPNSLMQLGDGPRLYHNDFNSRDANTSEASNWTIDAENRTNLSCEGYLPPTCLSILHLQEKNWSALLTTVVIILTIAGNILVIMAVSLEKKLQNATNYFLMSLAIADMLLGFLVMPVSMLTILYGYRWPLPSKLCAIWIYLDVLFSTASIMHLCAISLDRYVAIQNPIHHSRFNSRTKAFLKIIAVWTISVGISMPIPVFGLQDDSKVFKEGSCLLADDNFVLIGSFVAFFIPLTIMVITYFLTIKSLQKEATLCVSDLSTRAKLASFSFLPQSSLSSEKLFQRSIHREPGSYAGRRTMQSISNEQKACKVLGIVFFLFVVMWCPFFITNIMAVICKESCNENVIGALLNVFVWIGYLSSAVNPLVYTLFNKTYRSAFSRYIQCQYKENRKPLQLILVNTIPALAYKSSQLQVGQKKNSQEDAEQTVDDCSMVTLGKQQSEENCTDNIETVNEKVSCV

[3] = biological target: T2, D(4) dopamine receptor (Homo sapiens) (UniProt P21917); experiment: Antagonist activity at dopamine D4.2 receptor assessed as inhibition of dopamine-induced effect at 5 uM; format: functional
T2 sequence (whole entry): T1 sequence (P21917 whole entry)

[4] = biological target: 5-hydroxytryptamine receptor 2A (Rattus norvegicus, UniProt P14842); experiment: Displacement of [3H]ketanserin from rat 5HT2A receptor
Chain of 5-hydroxytryptamine receptor 2A (P14842 whole entry): as above

[5] = biological target: T2, D(4) dopamine receptor (Homo sapiens); experiment: Displacement of [3H]nemonapride from human cloned dopamine D4.2 receptor at 1 uM
[6] = biological target: 5-hydroxytryptamine receptor 2A (Homo sapiens) (UniProt P28223); experiment: Antagonist activity at 5HT2A assessed as inhibition of serotonin-induced effect at 5 uM; format: functional
Chain of 5-hydroxytryptamine receptor 2A (Homo sapiens) (P28223 whole entry): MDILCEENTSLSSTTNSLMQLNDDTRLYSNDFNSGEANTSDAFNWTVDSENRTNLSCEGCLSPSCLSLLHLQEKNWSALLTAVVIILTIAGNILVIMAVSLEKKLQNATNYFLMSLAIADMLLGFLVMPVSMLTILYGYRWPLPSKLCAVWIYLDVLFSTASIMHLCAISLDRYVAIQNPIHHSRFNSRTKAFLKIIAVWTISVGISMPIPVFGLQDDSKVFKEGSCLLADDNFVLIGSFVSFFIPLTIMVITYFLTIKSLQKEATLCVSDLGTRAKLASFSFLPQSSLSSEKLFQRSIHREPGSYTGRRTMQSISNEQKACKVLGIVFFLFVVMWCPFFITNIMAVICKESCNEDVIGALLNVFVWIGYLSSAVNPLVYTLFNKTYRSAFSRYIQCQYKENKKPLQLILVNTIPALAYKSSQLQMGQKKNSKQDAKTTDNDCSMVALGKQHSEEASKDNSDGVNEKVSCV

| Ki (D(4) dopamine receptor) [nM] | inhibition [1] [%] | inhibition [2] [%] | Activity [3] | Ki [4] [nM] | inhibition [5] [%] | Activity [6] | SMILES |
| --- | --- | --- | --- | --- | --- | --- | --- |
| 96 | 0 | 32 | Active |  |  |  | O=C(NC1CCN(Cc2ccc(C(F)(F)F)cc2)CC1)c1cccc2ccccc12 |
| 44 | 4 |  | Active |  |  |  | O=C(NC1CCN(Cc2ccc(Br)cc2)CC1)c1cccc2ccccc12 |
| 84 | 0 | 36 |  |  |  |  | O=C(NC1CCN(Cc2ccc(C(F)(F)F)cc2)CC1)c1ccc2ccccc2c1 |
| 223 | 3 |  | Active |  |  |  | COc1ccc(CN2CCC(NC(=O)c3cccc4ccccc34)CC2)cc1 |
|  | 5 |  |  | 695 | 32 |  | O=C(NC1CCN(Cc2ccncc2)CC1)c1ccc2ccccc2c1 |
| 34 |  |  | Active | 223 |  | Active | O=C(NC1CCN(Cc2ccc(Br)cc2)CC1)c1ccc2ccccc2c1 |
| 37 | 15 |  | Active | 242 |  | Active | O=C(NC1CCN(Cc2ccc(Cl)cc2)CC1)c1ccc2ccccc2c1 |
|  | 0 | 47 |  |  | 31 |  | O=C(NC1CCN(Cc2ccccc2Br)CC1)c1ccc2ccccc2c1 |
| 43 | 0 | 23 | Active |  |  |  | O=C(NC1CCN(Cc2ccc(Cl)cc2)CC1)c1cccc2ccccc12 |
| 155 | 9 | 26 | Active |  |  |  | Cc1ccccc1CN1CCC(NC(=O)c2cccc3ccccc23)CC1 |
| 11 | 20 |  | Active | 87 |  | Active | Cc1cccc(CN2CCC(NC(=O)c3ccc4ccccc4c3)CC2)c1 |
|  | 0 | 20 |  |  | 42 |  | O=C(NC1CCN(Cc2ccc([N+](=O)[O-])cc2)CC1)c1cccc2ccccc12 |
| 77 | 11 | 38 | Active |  |  |  | Cc1cccc(CN2CCC(NC(=O)c3cccc4ccccc34)CC2)c1 |
| 116 | 0 | 49 | Active |  |  |  | O=C(NC1CCN(Cc2cccc(Cl)c2)CC1)c1cccc2ccccc12 |
|  |  |  | Active |  |  | Active | O=C(NC1CCN(Cc2ccccc2)CC1)c1ccc2ccccc2c1 |
| 66 |  |  | Active | 462 |  | Active | O=C(NC1CCN(Cc2cccc(Br)c2)CC1)c1cccc2ccccc12 |
| 329 |  |  | Active |  |  |  | O=C(NC1CCN(Cc2ccccc2Cl)CC1)c1cccc2ccccc12 |
|  | 0 | 4 |  |  | 0 |  | O=C(NC1CCN(Cc2c(F)c(F)c(F)c(F)c2F)CC1)c1ccc2ccccc2c1 |

| Ki (D(4) dopamine receptor) [nM] | inhibition [1] [%] | inhibition [2] [%] | Activity [3] | Ki [4] [nM] | inhibition [5] [%] | Activity [6] | SMILES |
| --- | --- | --- | --- | --- | --- | --- | --- |
| 181 | 0 |  | Active | 278 |  | Active | O=C(NC1CCN(Cc2ccc([N+](=O)[O-])cc2)CC1)c1ccc2ccccc2c1 |
| 326 | 4 |  |  | 524 |  |  | O=C(NC1CCN(Cc2cccnc2)CC1)c1ccc2ccccc2c1 |
| 16 | 0 |  | Active | 158 |  | Active | COc1cccc(CN2CCC(NC(=O)c3ccc4ccccc4c3)CC2)c1 |
| 299 | 5 |  |  | 545 |  |  | O=C(NC1CCN(Cc2ccccn2)CC1)c1ccc2ccccc2c1 |
|  | 8 |  |  |  | 35 |  | O=C(NC1CCN(Cc2ccccc2Br)CC1)c1cccc2ccccc12 |
|  |  |  | Active |  |  | Active | O=C(NC1CCN(Cc2ccccc2)CC1)c1cccc2ccccc12 |
|  | 0 |  |  | 228 | 0 |  | O=C(NC1CCN(Cc2c(F)c(F)c(F)c(F)c2F)CC1)c1cccc2ccccc12 |
| 31 | 18 |  | Active | 151 |  | Active | COc1ccc(CN2CCC(NC(=O)c3ccc4ccccc4c3)CC2)cc1 |
| 69 | 13 | 33 | Active |  |  |  | Cc1ccc(CN2CCC(NC(=O)c3cccc4ccccc34)CC2)cc1 |
| 168 | 0 | 23 | Active |  |  |  | COc1cccc(CN2CCC(NC(=O)c3cccc4ccccc34)CC2)c1 |
|  | 0 |  |  | 133 | 48 | Active | O=C(NC1CCN(Cc2ccccc2Cl)CC1)c1ccc2ccccc2c1 |
| 26 | 6 |  | Active | 175 |  | Active | Cc1ccccc1CN1CCC(NC(=O)c2ccc3ccccc3c2)CC1 |
| 103 | 9 | 15 | Active |  |  |  | O=C(NC1CCN(Cc2cccc(C(F)(F)F)c2)CC1)c1ccc2ccccc2c1 |
| 21 | 42 |  | Active | 222 |  | Active | Cc1ccc(CN2CCC(NC(=O)c3ccc4ccccc4c3)CC2)cc1 |
| 119 | 0 |  | Active |  |  |  | O=C(NC1CCN(Cc2cccc(C(F)(F)F)c2)CC1)c1cccc2ccccc12 |
| 36 |  |  | Active | 53 |  | Active | O=C(NC1CCN(Cc2cccc(Br)c2)CC1)c1ccc2ccccc2c1 |
| 54 | 29 |  | Active | 133 |  | Active | O=C(NC1CCN(Cc2cccc(Cl)c2)CC1)c1ccc2ccccc2c1 |
